One test addresses T1, NHE3 (Homo sapiens, UniProt P48764).
T1 construct: expressed in transfected cells
T1 sequence (P48764 26-834): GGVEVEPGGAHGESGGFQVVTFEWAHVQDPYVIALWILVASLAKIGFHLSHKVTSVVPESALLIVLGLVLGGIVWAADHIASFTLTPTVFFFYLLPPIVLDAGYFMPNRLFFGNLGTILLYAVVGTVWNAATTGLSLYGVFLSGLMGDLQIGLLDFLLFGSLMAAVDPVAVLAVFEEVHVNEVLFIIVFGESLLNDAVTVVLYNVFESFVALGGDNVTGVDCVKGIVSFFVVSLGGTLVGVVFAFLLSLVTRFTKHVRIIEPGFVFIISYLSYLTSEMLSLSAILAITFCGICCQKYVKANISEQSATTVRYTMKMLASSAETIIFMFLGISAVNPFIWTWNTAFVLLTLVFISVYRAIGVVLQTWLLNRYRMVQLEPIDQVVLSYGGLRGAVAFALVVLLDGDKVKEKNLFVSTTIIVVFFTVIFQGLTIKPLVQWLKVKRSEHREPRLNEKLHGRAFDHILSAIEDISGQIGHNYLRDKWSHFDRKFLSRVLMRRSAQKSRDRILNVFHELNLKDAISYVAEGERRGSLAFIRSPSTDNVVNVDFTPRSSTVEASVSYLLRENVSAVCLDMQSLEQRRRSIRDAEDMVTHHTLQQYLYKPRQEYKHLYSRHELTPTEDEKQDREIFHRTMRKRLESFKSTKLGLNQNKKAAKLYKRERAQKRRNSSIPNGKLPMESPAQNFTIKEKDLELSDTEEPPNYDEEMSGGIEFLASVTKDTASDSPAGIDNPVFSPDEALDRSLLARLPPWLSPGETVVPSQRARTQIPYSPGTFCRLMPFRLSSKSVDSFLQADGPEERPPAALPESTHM
T1 sequence (Q99653 2-195 partner limits assumed): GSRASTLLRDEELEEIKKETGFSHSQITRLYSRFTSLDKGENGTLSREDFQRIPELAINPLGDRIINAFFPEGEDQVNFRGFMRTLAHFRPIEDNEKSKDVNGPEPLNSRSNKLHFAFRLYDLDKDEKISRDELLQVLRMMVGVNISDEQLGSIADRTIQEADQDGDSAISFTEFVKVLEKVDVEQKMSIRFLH
As to the kind of experiment: Cell-based assay of NHE-3 activity (persistent inhibition), human. The settings on record: human Persistence, 60 min incubation then washout. Summed up: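 PS120 fibroblasts expressing human NHE3 with NHERF2 exposed to 0-30 μM compound for 60 min at RT, then washed out; cells acid-loaded by NH4Cl prepulse with BCECF-AM and Na+-free buffer. Na+-driven pH recovery started 10 min post-washout; initial rate of BCECF ratio change (FLIPR) taken as activity.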

The subject of test [1] is absorption of sodium from the intestinal lumen. As to the kind of experiment: Inhibition of intestinal sodium absorption in mice. The test is classed as in vivo. The settings on record: CD-1 mice, 15 mg/kg oral gavage twice daily; for Fecal fluid content (Δ from vehicle): day 3, change from vehicle group mean; for response vs control in vivo at 15 mg/kg: Mus musculus, 72 h, day 3, normalized to dietary sodium intake. A digest of the protocol: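 Male ~8-week CD-1 mice on chow with added 0.4% inorganic phosphorous, in metabolic cages after 3-day acclimation and 24-hr baseline collection. Urine sodium by ion chromatography, dried fecal sodium by MP-AES; day-3 24-hour excretion normalized to dietary sodium intake and expressed as % of vehicle mean; diarrhea and fecal fluid also recorded.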

The mark [2] stands for this setting: read-out: Fecal Na Excretion (% of vehicle).
The mark [3] stands for this setting: read-out: Urinary Na Excretion (% of vehicle).

Like-named read-outs stand apart in the source and are kept apart here. A value given as a limit tells only on which side of the number the result lay.

Consider `Cc1cc(S(=O)(=O)NCCOCCOCCNC(=O)NCCCCNC(=O)NCCOCCOCCNS(=O)(=O)c2ccc(O[C@H]3c4cc(Cl)cc(Cl)c4C[C@@H]3N3CCNCC3)c(C)c2)ccc1O[C@H]1c2cc(Cl)cc(Cl)c2C[C@@H]1N1CCNCC1` [Example 32, 3-[2-(2-[2-[(4-[[(1S,2S)-4,6-Dichloro-2-(piperazin-1-yl)-2,3-dihydro-1H-inden-1-yl]oxy]-3-methylbenzene)sulfonamido]ethoxy]ethoxy)ethyl]-1-[4-([[2-(2-[2-[(4-[[(1S,2S)-4,6-dichloro-2-(piperazin-1-yl)-2,3-dihydro-1H-inden-1-yl]oxy]-3-methylbenzene)sulfonamido]ethoxy]ethoxy)ethyl]carbamoyl]amino)butyl]urea; bis(trifluoroacetic acid)], for which the “% inhibition” value at NHE3 is reported as “C (>70%)”. Besides, at NHE3, the pIC50 entry is given as “C (NHE3 pIC50 > 7)”. The “Fecal fluid content (Δ from vehicle)” value in test [1] is reported as “A (<5)”. In addition, the response vs control in vivo at 15 mg/kg is 150 to 200% in test [1] (setting [2]) and 50 to 70% in test [1] (setting [3]).
As to `O=C(NCCCCNC(=O)NCCOCCOCCNS(=O)(=O)c1ccc(O[C@H]2c3cc(Cl)cc(Cl)c3C[C@@H]2N2CCNCC2)c(F)c1)NCCOCCOCCNS(=O)(=O)c1ccc(O[C@H]2c3cc(Cl)cc(Cl)c3C[C@@H]2N2CCNCC2)c(F)c1` [Example 33, 3-[2-(2-[2-[(4-[[(1S,2S)-4,6-Dichloro-2-(piperazin-1-yl)-2,3-dihydro-1H-inden-1-yl]oxy]-3-fluorobenzene)sulfonamido]ethoxy]ethoxy)ethyl]-1-[4-[[(2-(2-[2-[(4-[[(1S,2S)-4,6-dichloro-2-(piperazin-1-yl)-2,3-dihydro-1H-inden-1-y]oxy]-3-fluorobenzene)sulfonamido]ethoxy]ethoxy)ethyl]carbamoyl]amino)butyl]urea; bis(trifluoroacetic acid)], the “% inhibition” value on NHE3 is recorded as “C (>70%)”. For the same compound, the “Fecal fluid content (Δ from vehicle)” value in test [1] was “C (>10)”. The response vs control in vivo at 15 mg/kg in test [1] (setting [2]) was more than 200%; in test [1] (setting [3]), less than 50%.
For `Cc1cc(Cl)cc2c1C[C@H](N1CCNCC1)[C@H]2Oc1ccc(S(=O)(=O)NCCOCCOCCNC(=O)NCCCCNC(=O)NCCOCCOCCNS(=O)(=O)c2ccc(O[C@H]3c4cc(Cl)cc(C)c4C[C@@H]3N3CCNCC3)cc2)cc1` [Example 34, 3-[2-(2-[2-[(4-[[(1S,2S)-6-Chloro-4-methyl-2-(piperazin-1-yl)-2,3-dihydro-1H-inden-1-yl]oxy]benzene)sulfonamido]ethoxy]ethoxy)ethyl]-1-[4-([[2-(2-[2-[(4-[[(1S,2S)-6-chloro-4-methyl-2-(piperazin-1-yl)-2,3-dihydro-1H-inden-1-yl]oxy]benzene)sulfonamido]ethoxy]ethyl)ethyl]carbamoyl]amino)butyl]urea; bis(trifluoroacetic acid)], in that order: “C (>70%)”, “B (5-10)”, 150 to 200% and 50 to 70%.
As for `Cc1cc(S(=O)(=O)NCCOCCOCCNC(=O)NCCCCNC(=O)NCCOCCOCCNS(=O)(=O)c2ccc(O[C@H]3c4cc(Cl)cc(C)c4C[C@@H]3N3CCNCC3)c(C)c2)ccc1O[C@H]1c2cc(Cl)cc(C)c2C[C@@H]1N1CCNCC1` [Example 35, 3-[2-(2-[2-[(4-[[(1S,2S)-6-Chloro-4-methyl-2-(piperazin-1-yl)-2,3-dihydro-1H-inden-1-yl]oxy]-3-methylbenzene)sulfonamido]ethoxy]ethoxy)ethyl]-1-[4-([[2-(2-[2-[(4-[[(1S,2S)-6-chloro-4-methyl-2-(piperazin-1-yl)-2,3-dihydro-1H-inden-1-yl]oxy]-3-methylbenzene)sulfonamido]ethoxy]ethoxy)ethyl]carbamoyl]amino)butyl]urea; bis(trifluoroacetic acid)], on NHE3, the “% inhibition” value is given as “C (>70%)” and the pIC50 result is on record as “C (NHE3 pIC50 > 7)”. For the same compound, the “Fecal fluid content (Δ from vehicle)” value in test [1] is reported as “A (<5)”. Further, in test [1] (setting [2]), the response vs control in vivo at 15 mg/kg lay within 150 to 200%. In addition, the response vs control in vivo at 15 mg/kg in test [1] (setting [3]) is more than 70%.
Take `Cc1cc(Cl)cc2c1C[C@H](N1CCNCC1)[C@H]2Oc1ccc(S(=O)(=O)NCCOCCOCCNC(=O)NCCCCNC(=O)NCCOCCOCCNS(=O)(=O)c2ccc(O[C@H]3c4cc(Cl)cc(C)c4C[C@@H]3N3CCNCC3)c(F)c2)cc1F` [Example 36, 3-[2-(2-[2-[(4-[[(1S,2S)-6-Chloro-4-methyl-2-(piperazin-1-yl)-2,3-dihydro-1H-inden-1-yl]oxy]-3-fluorobenzene)sulfonamido]ethoxy]ethoxy)ethyl]-1-[4-([[2-(2-[2-[(4-[[(1S,2S)-6-chloro-4-methyl-2-(piperazin-1-yl)-2,3-dihydro-1H-inden-1-yl]oxy]-3-fluorobenzene)sulfonamido]ethoxy]ethoxy)ethyl]carbamoyl]amino)butyl]urea; bis(trifluoroacetic acid)]: the “% inhibition” value at NHE3 is “C (>70%)”. The pIC50 result on NHE3 is recorded as “C (NHE3 pIC50 > 7)”. Besides, the “Fecal fluid content (Δ from vehicle)” value in test [1] is reported as “B (5-10)”. The response vs control in vivo at 15 mg/kg in test [1] (setting [2]) lay in the range of 150 to 200%; in test [1] (setting [3]), 50 to 70%.
As for `N#Cc1cc(Cl)cc2c1C[C@H](N1CCNCC1)[C@H]2Oc1ccc(S(=O)(=O)NCCOCCOCCNC(=O)NCCCCNC(=O)NCCOCCOCCNS(=O)(=O)c2ccc(O[C@H]3c4cc(Cl)cc(C#N)c4C[C@@H]3N3CCNCC3)cc2)cc1` [Example 41, 3-[2-(2-[2-[(4-[[(1S,2S)-6-Chloro-4-cyano-2-(piperazin-1-yl)-2,3-dihydro-1H-inden-1-yl]oxy]benzene)sulfonamido]ethoxy]ethoxy)ethyl]-1-[4-([[2-(2-[2-[(4-[[(1S,2S)-6-chloro-4-cyano-2-(piperazin-1-yl)-2,3-dihydro-1H-inden-1-yl]oxy]benzene)sulfonamido]ethoxy]ethoxy)ethyl]carbamoyl]amino)butyl]urea; bis(trifluoroacetic acid)], the “% inhibition” value on NHE3 was “C (>70%)”. For the same compound, on NHE3, the pIC50 entry is given as “C (NHE3 pIC50 > 7)”. Moreover, the “Fecal fluid content (Δ from vehicle)” value in test [1] is recorded as “B (5-10)”. In addition, the response vs control in vivo at 15 mg/kg in test [1] (setting [2]) was more than 200%; in test [1] (setting [3]), less than 50%.
Regarding `Cc1cc(S(=O)(=O)NCCOCCOCCNC(=O)NCCCCNC(=O)NCCOCCOCCNS(=O)(=O)c2ccc(O[C@H]3c4cc(Cl)cc(C#N)c4C[C@@H]3N3CCNCC3)c(C)c2)ccc1O[C@H]1c2cc(Cl)cc(C#N)c2C[C@@H]1N1CCNCC1` [Example 42, 3-[2-(2-[2-[(4-[[(1S,2S)-6-Chloro-4-cyano-2-(piperazin-1-yl)-2,3-dihydro-1H-inden-1-yl]oxy]-3-methylbenzene)sulfonamido]ethoxy]ethoxy)ethyl]-1-[4-([[2-(2-[2-[(4-[[(1S,2S)-6-chloro-4-cyano-2-(piperazin-1-yl)-2,3-dihydro-1H-inden-1-yl]oxy]-3-methylbenzene)sulfonamido]ethoxy]ethoxy)ethyl]carbamoyl]amino)butyl]urea; bis(trifluoroacetic acid)], on NHE3, the “% inhibition” value is reported as “C (>70%)” and the pIC50 result is “C (NHE3 pIC50 > 7)”. Moreover, the “Fecal fluid content (Δ from vehicle)” value in test [1] is recorded as “B (5-10)”. Further, the response vs control in vivo at 15 mg/kg in test [1] (setting [2]) lay in the range of 150 to 200%. The response vs control in vivo at 15 mg/kg in test [1] (setting [3]) is less than 50%.

Values taken from US11242337B2, “Compounds useful for treating gastrointestinal tract disorders” (Ardelyx, Inc., priority 2017, dated 2022).
